Test results taken from US20180110762A1, “Compositions Methods for Treating Chronic Kidney Disease” (Merck Sharp & Dohme Corp, priority 2015, published 2018).

Molecular target: T1, αvβ3 purified from 293 cells overexpressing αvβ3 (Homo sapiens, UniProt P05106+P06756)
T1 construct: made in house; host or cells: 293 cells overexpressing αvβ3
Test: SPAV3 binding assay (scintillation proximity)
From the text: • 1. Wheat germ agglutinin Scintillation Proximity Beads (SPA): Amersham • 2. Octylglucopyranoside: Calbiochem • 3. HEPES: Calbiochem • 4. NaCl: Fisher • 5. CaCl2: Fisher • 6. MgCl2: SIGMA • 7. Phenylmethylsulfonylfluoride (PMSF): SIGMA • 8. Optiplate: PACKARD • 9. (S)-3-(4-(2-(6-aminopyridin-2-yl)ethyl)benzamido)-2-((4-(iodo-^125I)phenyl)sulfonamido)propanoic acid as found in WO0046215 (specific activity 500-1000 Ci/mmole) • 10. Test compound • 11. Purified integrin receptor: αvβ3 was purified from 293 cells overexpressing αvβ3 (Duong et al., J. Bone Min. Res., 8:S378, 1993) according to Pytela (Methods in Enzymology, 144:475, 1987) • 12. Binding buffer: 50 mM HEPES, pH 7.8, 100 mM NaCl, 1 mM Ca^2+/Mg^2+, 0.5 mM PMSF • 13. 50 mM octylglucoside in binding buffer: 50-OG buffer
• 1. Pretreatment of SPA beads: • 500 mg of lyophilized SPA beads were first washed four times with 200 ml of 50-OG buffer and once with 100 ml of binding buffer, and then resuspended in 12.5 ml of binding buffer. • 2. Preparation of SPA beads and receptor mixture • In each assay tube, 2.5 μl (40 mg/ml) of pretreated beads were suspended in 97.5 μl of binding buffer and […] of 50-OG buffer. […] (˜30 ng/μ1) of purified receptor was added to the beads in suspension with stirring at room temperature for 30 minutes. The mixture was then centrifuged at 2,500 rpm in a Beckman GPR Benchtop centrifuge for 10 minutes at 4° C. The pellets were then resuspended in 50 μl of binding buffer and 25 μl of 50-OG buffer. • 3. Reaction • The following were sequentially added into Optiplate in corresponding wells: • (i) Receptor/beads mixture (75 μl) • (ii) 25 μl of each of the following: compound to be tested, binding buffer for total binding or A-8 for non-specific binding (final concentration 1 μM) • (iii) (S)-3-(4-(2-(6-aminopyridin-2-yl)ethyl)benzamido)-2-((4-(iodo-^125I)phenyl)sulfonamido)propanoic acid as found in WO0046215 (specific activity 500-1000 Ci/mmole) in binding buffer (25 μl, final concentration 40 pM) • (iv) Binding buffer (125 μl) • (v) Each plate was sealed with plate sealer from PACKARD and incubated overnight with rocking at 4° C. • 4. Plates were counted using PACKARD TOPCOUNT • 5. % inhibition was calculated as follows: • A=total counts • B=nonspecific counts • C=sample counts
% inhibition=[{(A−B)−(C−B)}/(A−B)]/(A−B)×100

T1 sequence (P06756 31-889 limits assumed): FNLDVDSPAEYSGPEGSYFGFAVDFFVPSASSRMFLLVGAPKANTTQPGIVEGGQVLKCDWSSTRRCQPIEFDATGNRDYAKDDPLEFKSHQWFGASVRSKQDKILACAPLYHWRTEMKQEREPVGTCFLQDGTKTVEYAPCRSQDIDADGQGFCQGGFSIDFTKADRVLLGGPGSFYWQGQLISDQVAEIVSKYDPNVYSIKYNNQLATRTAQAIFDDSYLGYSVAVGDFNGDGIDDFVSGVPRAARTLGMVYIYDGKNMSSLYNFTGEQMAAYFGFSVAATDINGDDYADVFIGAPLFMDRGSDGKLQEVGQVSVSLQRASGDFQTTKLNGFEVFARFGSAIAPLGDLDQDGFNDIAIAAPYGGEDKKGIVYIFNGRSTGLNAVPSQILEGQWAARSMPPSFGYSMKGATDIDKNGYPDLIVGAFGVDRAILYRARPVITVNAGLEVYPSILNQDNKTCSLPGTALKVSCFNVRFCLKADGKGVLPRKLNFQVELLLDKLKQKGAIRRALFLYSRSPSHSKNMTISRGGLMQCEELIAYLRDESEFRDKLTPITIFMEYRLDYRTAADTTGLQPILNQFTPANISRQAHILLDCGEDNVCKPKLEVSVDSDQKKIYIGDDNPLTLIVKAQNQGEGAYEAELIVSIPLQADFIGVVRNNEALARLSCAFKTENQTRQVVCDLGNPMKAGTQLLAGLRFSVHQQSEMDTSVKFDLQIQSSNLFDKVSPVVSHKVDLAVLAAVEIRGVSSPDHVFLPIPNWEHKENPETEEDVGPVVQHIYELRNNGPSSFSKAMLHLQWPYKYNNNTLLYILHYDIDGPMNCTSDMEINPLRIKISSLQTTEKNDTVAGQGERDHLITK
T1 sequence (P06756 891-1048 partner limits assumed): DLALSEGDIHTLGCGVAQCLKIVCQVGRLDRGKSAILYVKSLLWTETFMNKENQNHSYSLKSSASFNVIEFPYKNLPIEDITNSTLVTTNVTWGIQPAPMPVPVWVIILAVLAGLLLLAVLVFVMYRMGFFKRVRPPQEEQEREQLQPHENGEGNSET
T1 sequence (P05106 27-788): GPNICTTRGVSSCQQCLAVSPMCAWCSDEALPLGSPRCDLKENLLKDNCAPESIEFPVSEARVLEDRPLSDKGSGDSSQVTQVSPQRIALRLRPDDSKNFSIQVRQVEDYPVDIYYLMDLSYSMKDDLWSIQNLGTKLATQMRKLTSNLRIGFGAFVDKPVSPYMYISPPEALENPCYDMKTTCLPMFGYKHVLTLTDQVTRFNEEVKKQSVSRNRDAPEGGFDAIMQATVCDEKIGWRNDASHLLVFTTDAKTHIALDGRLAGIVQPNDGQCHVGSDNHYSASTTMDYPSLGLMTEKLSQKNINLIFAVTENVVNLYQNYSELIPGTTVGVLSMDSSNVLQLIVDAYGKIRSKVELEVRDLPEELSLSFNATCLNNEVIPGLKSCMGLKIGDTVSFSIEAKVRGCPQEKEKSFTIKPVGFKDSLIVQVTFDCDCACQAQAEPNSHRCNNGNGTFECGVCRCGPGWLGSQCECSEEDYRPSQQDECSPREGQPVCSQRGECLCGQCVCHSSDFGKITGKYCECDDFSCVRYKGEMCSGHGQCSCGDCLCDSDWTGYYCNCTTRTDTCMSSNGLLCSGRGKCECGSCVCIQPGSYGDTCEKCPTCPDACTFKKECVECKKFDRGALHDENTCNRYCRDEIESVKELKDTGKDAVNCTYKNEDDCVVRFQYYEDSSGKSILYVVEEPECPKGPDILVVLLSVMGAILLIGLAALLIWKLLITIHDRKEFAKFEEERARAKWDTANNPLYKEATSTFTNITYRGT

| Compound | IC50 |
| --- | --- |
| Cc1ncc(C(CC(=O)O)CC(=O)CCCCc2ccc3c(n2)NCCC3)cn1 (single isomer, unassigned) [Compound G, 3(S or R)-(2-Methyl-pyrimidin-5-yl)-5-oxo-9-(5,6,7,8-tetrahydro-[1,8]naphthyridin-2-yl)-nonanoic Acid] | 0.1 nM |
| COc1ccc([C@H](CC(=O)O)N2CCN(CCCc3ccc4c(n3)NCCC43CC3)C2=O)cn1 [Compound C] | 0.1 nM |
| CCOc1ccc([C@H](CC(=O)O)N2CCN(CCCc3ccc4c(n3)NCCC4)C2=O)cn1 [Compound D] | 0.1 nM |
| O=C(O)C[C@H](/C=C/CCCCc1ccc2c(n1)NCCC2)c1cncnc1 [Compound E, 3 (R)-(Pyrimidin-5-yl)-9-(5,6,7,8-tetrahydro-[1,8]-naphthyridin-2-yl)-(E)-non-4-enoic Acid] | 0.1 nM |
| Cc1ncc([C@@H](CCCCCCc2ccc3c(n2)NCCC3)CC(=O)O)cn1 [Compound F] | 0.1 nM |
| Cc1ncc(C(CC(=O)O)CC(=O)CCCCc2ccc3c(n2)NCCCC3)cn1 [Compound H, 3(R) and 3(S)-(2-Methyl-pyrimidin-5-yl)-5-oxo-9-(5,6,7,8-tetrahydro-5H-pyrido[2,3-b]azepin-2-yl)-nonanoic Acid] | 0.2 nM |
